US12495798B2, “Nicotinamide compound and herbicidal composition comprising compound” (KOREA RESEARCH INSTITUTE OF CHEMICAL TECHNOLOGY, priority 2019, dated 2025)

Tests used:
Format in all cases: in vivo
[1] = test system: fall panicum; assay: Herbicidal activity test against upland field weeds (soil treatment test); set-up: key to Soil treatment herbicidal activity, Fall panicum: 0 (no control); 100 (complete control); details: 50 g ai/ha, scale 0 (no control) to 100 (complete control); for pest or weed control at 50 g/ha: Panicum dichotomiflorum
How it was run: (§1)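 Pre-emergence soil surface spray, day after sowing, into sandy loam pots with fertilizer; compounds at 50 or 75 g a.i./ha in 50% acetone, 0.1% Tween-20. Greenhouse at 30±5 °C, 14/10 h light/dark; visual control rated 0–100 against untreated after 14 days (21 if needed).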

[2] = test system: sorghum; assay: as above; set-up: key to Soil treatment herbicidal activity, Sorghum: 0 (no control); 100 (complete control); details: 50 g ai/ha, scale 0 (no control) to 100 (complete control); for plant injury at 50 g/ha: Sorghum
How it was run: as §1

[3] = test system: quack grass; assay: Herbicidal activity test against upland field weeds (foliar treatment test); set-up: key to Foliar treatment herbicidal activity, quack grass: 0 (no control); 100 (complete control); details: 50 g ai/ha, scale 0-100
How it was run: (§2)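 Greenhouse-grown plants (30±5 °C, 14/10 h light/dark) foliar hand-sprayed with compound in 50% acetone, 0.1% Tween-20 at 50 or 75 g a.i./ha. Control visually scored 0 (none) to 100 (complete) versus untreated after 14 days, or 21 days if needed.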

[4] = test system: indian jointvetch; assay: Herbicidal activity test against upland field weeds (soil treatment test); set-up: key to Soil treatment herbicidal activity, Indian jointvetch: 0 (no control); 100 (complete control); details: 50 g ai/ha, scale 0 (no control) to 100 (complete control)
How it was run: as §1

[5] = test system: crabgrass; assay: as above; set-up: key to Soil treatment herbicidal activity, Crabgrass: 0 (no control); 100 (complete control); details: 50 g ai/ha, scale 0 (no control) to 100 (complete control)
How it was run: as §1

[6] = test system: bindweed; assay: Herbicidal activity test against upland field weeds (foliar treatment test); details: 50 g ai/ha, scale 0-100
How it was run: as §2

[7] = test system: corn; assay: Phytotoxicity test for field crops (soil treatment test); set-up: key: 0 (no harm); 9 (complete withered)
How it was run: (§3)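 Crops sown in sterilized horticultural soil (pH 6.1, organic material 1.0%) with mixed fertilizer (N:P:K=17:21:17); one day after sowing, soil sprayed with compound in 33% acetone/0.1% Tween-20 at 19˜300 g a.i./ha. Greenhouse at 30±5° C, 14/10 h light/dark; injury scored visually 0–9 versus untreated control at 10 and 20 days.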

[8] = test system: soybean; assay: as above; set-up: key: 0 (no harm); 9 (complete withered)
How it was run: as §3

[9] = test system: rice; assay: as above; set-up: key: 0 (no harm); 9 (complete withered)
How it was run: as §3

[10] = test system: wheat; assay: as above; set-up: key: 0 (no harm); 9 (complete withered)
How it was run: as §3

[11] = test system: cotton; assay: as above; set-up: key: 0 (no harm); 9 (complete withered)
How it was run: as §3

[12] = test system: sorghum; assay: Herbicidal activity test against upland field weeds (foliar treatment test); details: Sorghum, 50 g ai/ha, scale 0-100
How it was run: as §2

[13] = test system: cocklebur; assay: Herbicidal activity test against upland field weeds (soil treatment test); set-up: key to Soil treatment herbicidal activity, Cocklebur: 0 (no control); 100 (complete control); details: 50 g ai/ha, scale 0 (no control) to 100 (complete control); for pest or weed control at 50 g/ha: Xanthium strumarium
How it was run: as §1

[14] = test system: crabgrass; assay: Herbicidal activity test against upland field weeds (foliar treatment test); details: Digitaria sanguinalis, 50 g ai/ha, scale 0-100
How it was run: as §2

[15] = 50 g ai/ha, Corn (10 days after treatment)
[16] = 50 g ai/ha, Corn (20 days after treatment)
[17] = 100 g ai/ha, Corn (10 days after treatment)
[18] = 100 g ai/ha, Corn (20 days after treatment)
[19] = 50 g ai/ha, Soybean (10 days after treatment)
[20] = 50 g ai/ha, Soybean (20 days after treatment)
[21] = 100 g ai/ha, Soybean (10 days after treatment)
[22] = 100 g ai/ha, Soybean (20 days after treatment)
[23] = 50 g ai/ha, Rice (10 days after treatment)
[24] = 50 g ai/ha, Rice (20 days after treatment)
[25] = 100 g ai/ha, Rice (10 days after treatment)
[26] = 100 g ai/ha, Rice (20 days after treatment)
[27] = 50 g ai/ha, Wheat (10 days after treatment)
[28] = 50 g ai/ha, Wheat (20 days after treatment)
[29] = 100 g ai/ha, Wheat (10 days after treatment)
[30] = 100 g ai/ha, Wheat (20 days after treatment)
[31] = 50 g ai/ha, Cotton (10 days after treatment)
[32] = 50 g ai/ha, Cotton (20 days after treatment)
[33] = 100 g ai/ha, Cotton (10 days after treatment)
[34] = 100 g ai/ha, Cotton (20 days after treatment)

SMILES: Cn1nc(COCc2nc(C(F)(F)F)ccc2C(=O)Nc2nnnn2C)nc1Cl [Compound No. 2-135, 2-(((5-chloro-1-methyl-1H-1,2,4-triazol-3-yl)methoxy)methyl)-N-(1-methyl-1H-tetrazol-5-yl)-6-(trifluoromethyl)nicotinamide]
- Soil treatment herbicidal activity, Fall panicum [1]: 0
- Soil treatment herbicidal activity, Sorghum [2]: 0
- Foliar treatment herbicidal activity, quack grass [3]: 0
- Soil treatment herbicidal activity, Indian jointvetch [4]: 0
- Soil treatment herbicidal activity, Crabgrass [5]: 0
- pest or weed control at 50 g/ha [6]: 70%
- Soil treatment phytotoxicity, Corn [7, 15]: 0
- Soil treatment phytotoxicity, Corn [7, 16]: 0
- Soil treatment phytotoxicity, Corn [7, 17]: 0
- Soil treatment phytotoxicity, Corn [7, 18]: 0
- Soil treatment phytotoxicity, Soybean [8, 19]: 0
- Soil treatment phytotoxicity, Soybean [8, 20]: 0
- Soil treatment phytotoxicity, Soybean [8, 21]: 2
- Soil treatment phytotoxicity, Soybean [8, 22]: 3
- Soil treatment phytotoxicity, Rice [9, 23]: 6
- Soil treatment phytotoxicity, Rice [9, 24]: 8
- Soil treatment phytotoxicity, Rice [9, 25]: 7
- Soil treatment phytotoxicity, Rice [9, 26]: 8
- Soil treatment phytotoxicity, Wheat [10, 27]: 0
- Soil treatment phytotoxicity, Wheat [10, 28]: 0
- Soil treatment phytotoxicity, Wheat [10, 29]: 0
- Soil treatment phytotoxicity, Wheat [10, 30]: 0
- Soil treatment phytotoxicity, Cotton [11, 31]: 1
- Soil treatment phytotoxicity, Cotton [11, 32]: 3
- Soil treatment phytotoxicity, Cotton [11, 33]: 1
- Soil treatment phytotoxicity, Cotton [11, 34]: 4
- plant injury at 50 g/ha [12]: 30%
- Soil treatment herbicidal activity, Cocklebur [13]: 0
- pest or weed control at 50 g/ha [14]: 70%

SMILES: Cn1nnc(COCc2nc(C(F)(F)Cl)ccc2C(=O)Nc2nnnn2C)n1 [Compound No. 2-78, 6-(chlorodifluoromethyl)-N-(1-methyl-1H-tetrazol-5-yl)-2-(((2-methyl-2H-tetrazol-5-yl)methoxy)methyl)nicotinamide]
- pest or weed control at 50 g/ha [1]: 90%
- plant injury at 50 g/ha [2]: 50%
- Foliar treatment herbicidal activity, quack grass [3]: 0
- pest or weed control at 50 g/ha [4]: 95%
- Soil treatment herbicidal activity, Crabgrass [5]: 100
- pest or weed control at 50 g/ha [6]: 40%
- Soil treatment phytotoxicity, Corn [7, 15]: 0
- Soil treatment phytotoxicity, Corn [7, 16]: 0
- Soil treatment phytotoxicity, Corn [7, 17]: 1
- Soil treatment phytotoxicity, Corn [7, 18]: 0
- Soil treatment phytotoxicity, Soybean [8, 19]: 0
- Soil treatment phytotoxicity, Soybean [8, 20]: 0
- Soil treatment phytotoxicity, Soybean [8, 21]: 0
- Soil treatment phytotoxicity, Soybean [8, 22]: 0
- Soil treatment phytotoxicity, Rice [9, 23]: 6
- Soil treatment phytotoxicity, Rice [9, 24]: 6
- Soil treatment phytotoxicity, Rice [9, 25]: 9
- Soil treatment phytotoxicity, Rice [9, 26]: 9
- Soil treatment phytotoxicity, Wheat [10, 27]: 0
- Soil treatment phytotoxicity, Wheat [10, 28]: 0
- Soil treatment phytotoxicity, Wheat [10, 29]: 0
- Soil treatment phytotoxicity, Wheat [10, 30]: 0
- Soil treatment phytotoxicity, Cotton [11, 31]: 2
- Soil treatment phytotoxicity, Cotton [11, 32]: 6.5
- Soil treatment phytotoxicity, Cotton [11, 33]: 3
- Soil treatment phytotoxicity, Cotton [11, 34]: 9
- plant injury at 50 g/ha [12]: 30%
- pest or weed control at 50 g/ha [13]: 70%
- pest or weed control at 50 g/ha [14]: 70%

SMILES: CON(Cc1nnn(C)n1)c1nc(C(F)(F)F)ccc1C(=O)Nc1nnnn1C [Compound No. 2-30, 2-(methoxy((2-methyl-2H-tetrazol-5-yl)methyl)amino)-N-(1-methyl-1H-tetrazol-5-yl)-6-(trifluoromethyl)nicotinamide]
- Soil treatment herbicidal activity, Fall panicum [1]: 100
- plant injury at 50 g/ha [2]: 50%
- Foliar treatment herbicidal activity, quack grass [3]: 0
- Soil treatment herbicidal activity, Indian jointvetch [4]: 100
- Soil treatment herbicidal activity, Crabgrass [5]: 100
- pest or weed control at 50 g/ha [6]: 60%
- Soil treatment phytotoxicity, Corn [7, 15]: 0
- Soil treatment phytotoxicity, Corn [7, 16]: 0
- Soil treatment phytotoxicity, Corn [7, 17]: 0
- Soil treatment phytotoxicity, Corn [7, 18]: 0
- Soil treatment phytotoxicity, Soybean [8, 19]: 7
- Soil treatment phytotoxicity, Soybean [8, 20]: 7
- Soil treatment phytotoxicity, Soybean [8, 21]: 7
- Soil treatment phytotoxicity, Soybean [8, 22]: 7
- Soil treatment phytotoxicity, Rice [9, 23]: 4
- Soil treatment phytotoxicity, Rice [9, 24]: 9
- Soil treatment phytotoxicity, Rice [9, 25]: 6
- Soil treatment phytotoxicity, Rice [9, 26]: 9
- Soil treatment phytotoxicity, Wheat [10, 27]: 0
- Soil treatment phytotoxicity, Wheat [10, 28]: 1
- Soil treatment phytotoxicity, Wheat [10, 29]: 0
- Soil treatment phytotoxicity, Wheat [10, 30]: 1
- Soil treatment phytotoxicity, Cotton [11, 31]: 2
- Soil treatment phytotoxicity, Cotton [11, 32]: 9
- Soil treatment phytotoxicity, Cotton [11, 33]: 2
- Soil treatment phytotoxicity, Cotton [11, 34]: 9
- plant injury at 50 g/ha [12]: 20%
- pest or weed control at 50 g/ha [13]: 90%
- pest or weed control at 50 g/ha [14]: 95%

SMILES: Cn1nnnc1COCc1nc(C(F)(F)F)ccc1C(=O)Nc1nnnn1C [Compound No. 1-61, N-(1-methyl-1H-tetrazol-5-yl)-2-(((1-methyl-1H-tetrazol-5-yl)methoxy)methyl)-6-(trifluoromethyl)nicotinamide]
- pest or weed control at 50 g/ha [1]: 95%
- Soil treatment herbicidal activity, Sorghum [2]: 0
- Foliar treatment herbicidal activity, quack grass [3]: 0
- Soil treatment herbicidal activity, Indian jointvetch [4]: 100
- pest or weed control at 50 g/ha ([5]; Digitaria sanguinalis): 40%
- pest or weed control at 50 g/ha [6]: 70%
- Soil treatment phytotoxicity, Corn [7, 15]: 0
- Soil treatment phytotoxicity, Corn [7, 16]: 0
- Soil treatment phytotoxicity, Corn [7, 17]: 0
- Soil treatment phytotoxicity, Corn [7, 18]: 0
- Soil treatment phytotoxicity, Soybean [8, 19]: 0
- Soil treatment phytotoxicity, Soybean [8, 21]: 3
- Soil treatment phytotoxicity, Soybean [8, 22]: 6
- Soil treatment phytotoxicity, Rice [9, 23]: 0
- Soil treatment phytotoxicity, Rice [9, 24]: 1
- Soil treatment phytotoxicity, Rice [9, 25]: 1
- Soil treatment phytotoxicity, Rice [9, 26]: 6
- Soil treatment phytotoxicity, Wheat [10, 27]: 0
- Soil treatment phytotoxicity, Wheat [10, 28]: 0
- Soil treatment phytotoxicity, Wheat [10, 29]: 0
- Soil treatment phytotoxicity, Wheat [10, 30]: 0
- Soil treatment phytotoxicity, Cotton [11, 31]: 1
- Soil treatment phytotoxicity, Cotton [11, 32]: 1
- Soil treatment phytotoxicity, Cotton [11, 33]: 2
- Soil treatment phytotoxicity, Cotton [11, 34]: 2
- plant injury at 50 g/ha [12]: 20%
- Soil treatment herbicidal activity, Cocklebur [13]: 0
- pest or weed control at 50 g/ha [14]: 95%
